Measured values reported in patent US9272987B2, “Diazeniumdiolate cyclohexyl derivatives” (Merck Sharp & Dohme Corp., priority 2011, dated 2016).

Tested on: Male beagle dogs
Test: canine telemetry protocol, blood pressure reduction efficacy
Assay type: in vivo
Details: change from baseline, 3 mg/kg oral gavage; for ΔPP (mmHg) 1-6 h / ΔPP (mmHg) 6-12 h / ΔPP (mmHg) 12-18 h: pulse pressure; for ΔSBP (mmHg) 1-6 h / ΔSBP (mmHg) 6-12 h / ΔSBP (mmHg) 12-18 h: systolic blood pressure
Procedure: Compounds of the invention were evaluated for blood pressure reduction efficacy using the following canine telemetry protocol described below.
Male beagle dogs (approximately 1-3 years old) with a body weight of between 10 and 16 kg were surgically implanted with DSI radiotelemetry devices (model: TL11M2-D70-PCT). Briefly, under an inhalant anesthesia, isoflurane/oxygen mixture (1-3.5%/to effect), the body of the telemetry device was positioned and secured intra-abdominally. Subsequently, the arterial catheter of the telemetry device was passed subcutaneously to the inguinal area and introduced into the femoral artery and advanced to the level of the descending aorta. The catheter was secured with 2-0 silk ligatures. The muscle and underlying fascia was closed over the catheter using absorbable suture and the skin was closed using non-absorbable suture. The animals were allowed a minimum recovery period of 2 weeks between surgery and the evaluation of test compounds.
Compound evaluation consisted of a 3 day paradigm at a 3 mg/kg dose. On the first day, no compounds were administered during a 24 hour period of baseline data collection. Blood pressure and heart rate data were collected continuously for one minute periods at 10 minute intervals. On the days of compound administration half the animals received test article with the other half receiving the vehicle used for compound formulation. All test materials were administered by oral gavage in a volume of 1 mL/kg. Data are expressed either as raw values (mm Hg or beats per minute) or as the change from baseline (average value for about 12 hours in low activity period prior to dosing). Change is SBP (systolic blood pressure) and PP (pulse pressure) over time is shown below: […]

Molecule | ΔPP (mmHg) 1-6 h [mmHg] | ΔPP (mmHg) 6-12 h [mmHg] | ΔPP (mmHg) 12-18 h [mmHg] | ΔSBP (mmHg) 1-6 h [mmHg] | ΔSBP (mmHg) 6-12 h [mmHg] | ΔSBP (mmHg) 12-18 h [mmHg]
CN(/[N+]([O-])=N/OC1CCCCC1)C(C)(C)C [Example 2] | −9 | −11 | −12 | −11 | −9 | −9
CN(/[N+]([O-])=N/OC1CCC(F)(F)CC1)C(C)(C)C [Example 9, O^2-(4,4-difluorocyclohexyl) 1-(N-tert-butyl-N-methylamino)diazen-1-ium-1,2-diolate] | −7 | −8 | −8 | −8 | −12 | −13
O^2-(trans-4-hydroxy-4-phenylcyclohexyl) 1-(N-tert-butyl-N-methylamino)diazen-1-ium-1,2-diolate [Example 19] | −7 | −9 | −9 | −11 | −12 | −15
O^2-(trans-4-phenylcyclohexyl) 1-(N-tert-butyl-N-methylamino)diazen-1-ium-1,2-diolate [Example 33] | −7 | −12 | −11 | −9 | −15 | −9
